{
  "source": "patent US12247032B2",
  "about": "“Substituted pyrazolo[1,5-a]pyrimidines as inhibitors of JAK kinases” (Genentech, Inc., priority 2019, dated 2025)",
  "key": {"[1]": {"biological_target": "T1, recombinant human JAK1 kinase domain protein (Residues 854-1154) (Homo sapiens, UniProt P23458)", "T1 construct": "human JAK1 kinase domain protein (Residues 854-1154); purchased Proteros Biostructures GmbH (Martinsried, Germany); host or cells: insect cells", "T1 sequence (P23458 854-1154)": "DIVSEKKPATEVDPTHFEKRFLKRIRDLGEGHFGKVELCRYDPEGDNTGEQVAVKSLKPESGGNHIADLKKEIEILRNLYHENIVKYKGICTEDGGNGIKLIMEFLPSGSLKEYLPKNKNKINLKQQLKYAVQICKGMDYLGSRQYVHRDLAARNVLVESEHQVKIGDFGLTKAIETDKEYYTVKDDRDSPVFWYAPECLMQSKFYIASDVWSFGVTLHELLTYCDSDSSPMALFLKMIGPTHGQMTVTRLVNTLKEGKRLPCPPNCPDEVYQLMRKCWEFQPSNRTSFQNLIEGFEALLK", "assay": "JAK1 biochemical assay (microfluidic mobility shift, peptide phosphorylation)", "conditions": "25 μM ATP, 1 nM total JAK1; Ki calculated from Ki app (tight-binding, competitive); read-out: Biochem JAK1 Ki", "procedure,_shortened": "(§1)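 Insect-cell-expressed human JAK1 (1 nM, residues 854-1154) or JAK2 (0.2 nM, residues 812-1132) phosphorylating 1.5 μM 5-FAM peptide Y-1B with 25 μM ATP, pH 7.2 HEPES, 30 min at 22-23 °C; twelve concentrations up to 1000 nM in duplicate. Mobility-shift % conversion fitted to tight-binding quadratic for Ki^app.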"}, "[2]": {"biological_target": "T2, Recombinant human JAK2 kinase domain protein (Residues 812-1132) (Homo sapiens, UniProt O60674)", "T2 construct": "human JAK2 kinase domain protein (Residues 812-1132); made in house; host or cells: insect cells", "T2 sequence (O60674 812-1132)": "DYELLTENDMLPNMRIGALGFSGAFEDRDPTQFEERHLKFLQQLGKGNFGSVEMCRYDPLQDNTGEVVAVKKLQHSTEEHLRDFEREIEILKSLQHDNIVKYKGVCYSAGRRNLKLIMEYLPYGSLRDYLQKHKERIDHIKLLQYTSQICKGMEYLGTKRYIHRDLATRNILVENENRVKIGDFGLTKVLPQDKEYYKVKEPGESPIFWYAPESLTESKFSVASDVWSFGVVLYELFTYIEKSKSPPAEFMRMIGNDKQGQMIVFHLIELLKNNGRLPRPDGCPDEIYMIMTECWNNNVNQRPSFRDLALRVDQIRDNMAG", "assay": "JAK2 biochemical assay (microfluidic mobility shift, peptide phosphorylation)", "conditions": "25 μM ATP, 0.2 nM total JAK2; Ki calculated from Ki app (tight-binding, competitive); read-out: Biochem JAK2 Ki", "procedure,_shortened": "as §1"}, "[3]": {"system": "JAK1 (IL-13-stimulated STAT6 phosphorylation in BEAS-2B cells)", "assay": "P-STAT6 BEAS-2B+IL-13 cell assay", "type": "cell-based, human", "conditions": "Homo sapiens, BEAS-2B, 1 h, 1 hour compound, IL-13 15 minutes, IC50 by four-parameter fit, read-out: Cellular JAK1 PSTAT6 BEAS2B + IL13", "procedure,_shortened": "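BEAS-2B human bronchial epithelial cells preincubated 1 h at 37 °C with compound, then stimulated with human recombinant IL-13 for 15 min. Phospho-STAT6 (Tyr641) in lysates measured by MSD electrochemiluminescence immunoassay; IC50 from a four-parameter logistic fit of percent of control.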"}},
  "data": [
    {"compound": "O=C(Nc1cn(Cc2nnn(CCO)n2)nc1-c1cc(Cl)ccc1OC(F)F)c1cnn2cccnc12", "note": "[Example 1, N-[3-[5-chloro-2-(difluoromethoxy)phenyl]-1-[[2-(2-hydroxyethyl)tetrazol-5-yl]methyl]pyrazol-4-yl]pyrazolo[1,5-a]pyrimidine-3-carboxamide]", "values": [
      {"measurement": "Ki", "setting": "[1]", "result": 0.15, "unit": "nM"},
      {"measurement": "Ki", "setting": "[2]", "result": 0.089, "unit": "nM"},
      {"measurement": "IC50", "setting": "[3]", "result": 6.7, "unit": "nM"}
    ]},
    {"compound": "CN(C)C1CCN(CCn2nnc(Cn3cc(NC(=O)c4cnn5cccnc45)c(-c4cc(OC(F)F)ccc4OC(F)F)n3)n2)CC1", "note": "[Example 59, N-[3-[2,5-bis(difluoromethoxy)phenyl]-1-[[2-[2-[4-(dimethylamino)-1-piperidyl]ethyl]tetrazol-5-yl]methyl]pyrazol-4-yl]pyrazolo[1,5-a]pyrimidine-3-carboxamide]", "values": [
      {"measurement": "Ki", "setting": "[1]", "result": 1, "unit": "nM"},
      {"measurement": "Ki", "setting": "[2]", "result": 0.71, "unit": "nM"},
      {"measurement": "IC50", "setting": "[3]", "result": 62, "unit": "nM"}
    ]},
    {"compound": "CN(C)CC(F)CN1CC(n2nnc(Cn3cc(NC(=O)c4cnn5cccnc45)c(-c4cc(OC(F)F)ccc4OC(F)F)n3)n2)C1", "note": "(single isomer, unassigned) [Example 83, N-[3-[2,5-bis(difluoromethoxy)phenyl]-1-[[2-[1-[3-(dimethylamino)-2-fluoro-propyl]azetidin-3-yl]tetrazol-5-yl]methyl]pyrazol-4-yl]pyrazolo[1,5-a]pyrimidine-3-carboxamide]", "values": [
      {"measurement": "Ki", "setting": "[1]", "result": 0.43, "unit": "nM"},
      {"measurement": "Ki", "setting": "[2]", "result": 0.39, "unit": "nM"},
      {"measurement": "IC50", "setting": "[3]", "result": 17, "unit": "nM"}
    ]},
    {"compound": "CN(C)CCN1CCC(n2nnc(Cn3cc(NC(=O)c4cnn5cccnc45)c(-c4cc(OC(F)F)ccc4OC(F)F)n3)n2)C1", "note": "(single isomer, unassigned) [Example 67, N-[3-[2,5-bis(difluoromethoxy)phenyl]-1-[[2-[1-[2-(dimethylamino)ethyl]pyrrolidin-3-yl]tetrazol-5-yl]methyl]pyrazol-4-yl]pyrazolo[1,5-a]pyrimidine-3-carboxamide]", "values": [
      {"measurement": "Ki", "setting": "[1]", "result": 0.53, "unit": "nM"},
      {"measurement": "Ki", "setting": "[2]", "result": 0.42, "unit": "nM"},
      {"measurement": "IC50", "setting": "[3]", "result": 56, "unit": "nM"}
    ]},
    {"compound": "CN(C)[C@H]1C[C@@H](N2CC(n3nnc(Cn4cc(NC(=O)c5cnn6cccnc56)c(-c5cc(OC(F)F)ccc5OC(F)F)n4)n3)C2)C1", "note": "[Example 71, N-[3-[2,5-bis(difluoromethoxy)phenyl]-1-[[2-[1-[3-(dimethylamino)cyclobutyl]azetidin-3-yl]tetrazol-5-yl]methyl]pyrazol-4-yl]pyrazolo[1,5-a]pyrimidine-3-carboxamide]", "values": [
      {"measurement": "Ki", "setting": "[1]", "result": 1.4, "unit": "nM"},
      {"measurement": "Ki", "setting": "[2]", "result": 1.1, "unit": "nM"},
      {"measurement": "IC50", "setting": "[3]", "result": 23, "unit": "nM"}
    ]},
    {"compound": "CN(C)CCCN1CC(n2nnc(Cn3cc(NC(=O)c4cnn5cccnc45)c(-c4cc(OC(F)F)ccc4OC(F)F)n3)n2)C1", "note": "[Example 51, N-[3-[2,5-bis(difluoromethoxy)phenyl]-1-[[2-[1-[3-(dimethylamino)propyl]azetidin-3-yl]tetrazol-5-yl]methyl]pyrazol-4-yl]pyrazolo[1,5-a]pyrimidine-3-carboxamide]", "values": [
      {"measurement": "Ki", "setting": "[1]", "result": 0.37, "unit": "nM"},
      {"measurement": "Ki", "setting": "[2]", "result": 0.37, "unit": "nM"},
      {"measurement": "IC50", "setting": "[3]", "result": 12, "unit": "nM"}
    ]}
  ]
}
